Measurements taken from patent publication US8470859B2, “Iminopyridine derivative and use thereof” (Takeda Pharmaceutical Company Limited, priority 2006, dated 2013).

How the values were obtained:
[1] = test system: isolated bladder muscle of BOO model rat; test: Effect of various drugs on α1 receptor stimulation-induced contraction of isolated bladder muscle of bladder outlet obstruction (BOO) model rat; conditions: phenylephrine 3 μmol/L
Protocol: Effect of Various Drugs on α1 Receptor Stimulation-Induced Contraction of Isolated Bladder Muscle of Bladder Outlet Obstruction (BOO) Model Rat
(§1) • (i) Seven-week-old male Wistar rats (CLEA Japan, Inc., Tokyo) were used. BOO rat was prepared according to publications (Hashimoto T, Nagabukuro H and Doi T: Effects of the selective acetylcholinesterase inhibitor TAK-802 on the voiding behavior and bladder mass increase in rats with partial bladder outlet obstruction. J Urol. 174: 1137-41., 2005.). After pentobarbital (50 mg/kg i.p., Dainippon Sumitomo Pharma Co., Ltd., Osaka) anesthesia, a lower middle abdominal incision was made to expose the bladder. The prostate was detached, the urethra was ligated along with a glass rod having an outer diameter of 1.2 mm, and the glass rod was removed to prepare partial obstruction of the urethra. After the surgery, the abdomen was sutured, and penicillin (2000 IU/rat, penicillin G potassium, MEIJI SEIKA KAISHA, LTD., Tokyo) was subcutaneously administered. An animal after 2 to 4 weeks from obstruction surgery was used. • (ii) Contractile Responses of Isolated Bladder Muscle (1) Preparation of Bladder Muscle Specimen
BOO model rat was sacrificed by decaptation, and the bladder was isolated. Muscle strips (length 7-10 mm, width about 3 mm) in the longitudinal direction were prepared from the bladder except bladder trigone (4-6 specimen from each bladder).
(§2) The prepared bladder muscle specimens were hung in a Magnus bath aerated with 95% O2-5% CO2 gas and filled with modified Krebs solution. The contraction tension was measured by an isometric strain transducer (TSD125C, Biopac systems, Santa Barbara, Calif., USA) and recorded in the hard disc of PC (ThinkCentre, IBM, USA) via an amplifier (DA100C, Biopac systems) and a multichannel data analysis apparatus (MP100A-CE, Biopac systems). For uptaking the data, a dedicated software (Acqknowledge 3.8.1., Biopac systems) was used and the sampling interval was set to 0.2 second (5 Hz). The specimens were hung with a load of about 1 g and, after an equilibration time of 1 hr or longer, the following experiment was performed.
The specimens were treated with phenylephrine (3 μmol/L) to induce contraction. After the contractile response was stabilized (>20 min), the specimens were cumulatively treated 3 times with a drug at a 10-fold common ratio and 30 min intervals, and the variation in the tension was observed.
The variation in the tension due to α1 receptor stimulation was evaluated by the two methods shown below [average method and standard deviation (Stddev) method].
The average tension for one minute was measured immediately before phenylephrine treatment and after the contraction was stabilized after the treatment (immediately before completion of about 20 min observation time), and the difference was taken as 100%. The average tension for one minute was measured immediately before completion of observation time (30 min) after treatment with a drug at each concentration, and the inhibition rate of the drug at each concentration was calculated. In the vehicle treatment group, the variation rate of phenylephrine-induced contraction was calculated every time the specimens were treated 3 times with lo the solvent, and the inhibition rate of the drug at each concentration was adjusted based on the variation rate of the corresponding vehicle treatment group. The concentration (IC50) necessary for inhibiting the average tension by 50% by preclinical package (SAS Institute Japan, Ver. 5.0) was calculated based on the inhibition rate at each concentration.
The standard deviation was measured immediately before phenylephrine treatment and for 5 min after the contraction was stabilized after treatment (immediately before completion of the about 20 min observation time) and the difference was taken as 100%. […]

[2] = test system: isolated bladder muscle of BOO model rat; test: Effect of SNAP-8719 on α1 receptor stimulation-induced contraction of isolated bladder muscle of bladder outlet obstruction (BOO) model rat; conditions: phenylephrine 3 μmol/L, average value ± standard error, N=5-8
Protocol: Effect of SNAP-8719 on α1 Receptor Stimulation-Induced Contraction of Isolated Bladder Muscle of Bladder Outlet Obstruction (BOO) Model Rat
as §1
BOO model rat was sacrificed by decaptation, and the bladder was isolated. Muscle strips (length 7-10 mm in the longitudinal direction, width about 3 mm) were prepared from the bladder except bladder trigone (4-6 specimen from each bladder).
as §2
The specimens were treated with phenylephrine (3 μmol/L) to induce contraction.
The standard deviation was measured for 5 minutes immediately before phenylephrine treatment and for 5 minutes after the contraction was stabilized after treatment (immediately before completion of the about 20 min observation time) and the difference was taken as 100%. The standard deviation was measured for 5 minutes immediately before completion of observation time (30 min) after the SNAP-8719 treatment, and the inhibition rate was calculated. In the vehicle treatment group, the variation rate of phenylephrine-induced contraction was calculated every time the specimens were repeatedly treated with the vehicle, and the inhibition rate of SNAP-8719 was adjusted based on the variation rate of the corresponding vehicle treatment group. • (iii) Action of SNAP-8719 on α1 Receptor Stimulation-Induced Contraction of Isolated Bladder Muscle of BOO Model Rat
After the phenylephrine-induced contraction was stabilized, the specimens were treated with the vehicle 0-4 times at 30 min intervals, treated with SNAP-8719 (1 μmol/L), and the variation in the contraction tension in 30 min was observed. […] Therefore, the evaluation by cumulative treatment with a drug was performed for up to 3 concentrations at 30 min intervals.

C[C@H](CN1CCN(c2cc(F)c(F)cc2F)CC1)N1C(=O)CC2(CCCC2)CC1=O [SNAP-8719]
effect on the rhythmic contractile response induced by phenylephrine (average method and Stddev method), in words [1]: inhibited
IC50 ([1]; concentration inhibiting the average tension by 50%, cumulative treatment, 3 concentrations, 30 min intervals, read-out: Inhibitory effect on phenylephrine-induced contraction IC50 (average method)): 360 nM
Inhibitory effect on phenylephrine-induced contraction IC30 (stddev method) ([1]; concentration inhibiting the sustained, rhythmic contractile responses by 30%, cumulative treatment, 3 concentrations, 30 min intervals): 180 nM
inhibition rate of phenylephrine-induced contraction (standard deviation method, vehicle adjusted value) ([2]; SNAP-8719 1 μmol/L after treatment with vehicle 0 times): 51.2±12.4%
inhibition rate of phenylephrine-induced contraction (standard deviation method, vehicle adjusted value) ([2]; SNAP-8719 1 μmol/L after treatment with vehicle 1 time at 30 min intervals): 47.4±9.1%
inhibition rate of phenylephrine-induced contraction (standard deviation method, vehicle adjusted value) ([2]; SNAP-8719 1 μmol/L after treatment with vehicle 2 times at 30 min intervals): 66.6±8.7%
inhibition rate of phenylephrine-induced contraction (standard deviation method, vehicle adjusted value) ([2]; SNAP-8719 1 μmol/L after treatment with vehicle 3 times at 30 min intervals): 36.3±9.4%
inhibition rate of phenylephrine-induced contraction (standard deviation method, vehicle adjusted value) ([2]; SNAP-8719 1 μmol/L after treatment with vehicle 4 times at 30 min intervals): 8.7±32.3%
